# pIC50: −log10 of the molar value. Several values for one entry are separate records, joined by “and”; a condition that tells them apart may be missing. Identical values can stand only once. Like-named read-outs stand apart in the source and are kept apart here.
# What was measured:
# [1] = biological target: T1, topoisomerase I (Topo I) (Homo sapiens, UniProt P11387); test: Topo I enzyme-inhibitory activity by agarose-gel electrophoresis (plasmid relaxation); assay type: biochemical
# T1 sequence (P11387 1-765): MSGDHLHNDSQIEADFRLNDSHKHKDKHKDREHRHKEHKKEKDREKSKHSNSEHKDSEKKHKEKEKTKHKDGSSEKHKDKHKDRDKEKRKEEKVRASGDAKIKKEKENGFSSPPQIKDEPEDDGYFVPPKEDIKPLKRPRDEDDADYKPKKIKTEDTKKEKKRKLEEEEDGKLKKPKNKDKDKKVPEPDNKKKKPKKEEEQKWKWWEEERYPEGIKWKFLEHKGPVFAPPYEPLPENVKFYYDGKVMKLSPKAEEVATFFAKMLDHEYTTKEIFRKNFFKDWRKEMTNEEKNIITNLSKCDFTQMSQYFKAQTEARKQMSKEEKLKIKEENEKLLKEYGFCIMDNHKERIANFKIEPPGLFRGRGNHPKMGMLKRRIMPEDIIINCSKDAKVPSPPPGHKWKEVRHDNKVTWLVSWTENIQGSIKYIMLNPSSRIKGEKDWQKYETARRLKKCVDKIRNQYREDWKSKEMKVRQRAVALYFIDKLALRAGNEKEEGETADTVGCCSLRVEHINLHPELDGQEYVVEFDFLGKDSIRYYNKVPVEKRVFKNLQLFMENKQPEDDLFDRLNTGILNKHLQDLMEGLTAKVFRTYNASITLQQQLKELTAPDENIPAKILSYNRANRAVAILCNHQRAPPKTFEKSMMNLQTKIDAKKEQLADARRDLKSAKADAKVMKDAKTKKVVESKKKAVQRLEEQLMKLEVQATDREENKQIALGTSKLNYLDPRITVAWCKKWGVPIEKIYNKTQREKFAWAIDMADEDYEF
# Excerpt: Test Example 1. Determination of Topo I Enzyme-Inhibitory Activity by Agarose-Gel Electrophoresis
# Principle: Type-I topoisomerase (Topo I) relaxes positive and negative supercoils by introducing transient single-strand breaks and forming reversible cleavage complexes (Topo I-DNA covalent complexes). Gel electrophoresis can resolve DNA species of identical molecular weight but different topology: supercoiled plasmid migrates fastest, whereas the nicked, relaxed form moves more slowly. Quantifying the decrease in supercoiled DNA therefore provides a direct measure of Topo I activity.
# Experimental Procedure: A 1× reaction buffer was prepared (20 mM Tris-HCl pH 7.5, 200 mM NaCl, 0.25 mM EDTA, 5 % (v/v) glycerol, 0.5 µg pNO1 plasmid substrate). Test compounds (5 % DMSO final) were added to the buffer, followed by Topo I enzyme (0.75 U per reaction). After gentle mixing, reactions were incubated at 37 °C for 30 min. Positive (enzyme + vehicle) and negative (no enzyme) controls were included in parallel. Reactions were terminated by adding STEB buffer and chloroform/iso-amyl alcohol (24:1, v/v), vortexed and centrifuged for 2 min. The aqueous (upper) phase was loaded onto a 1 % (w/v) agarose gel, electrophoresed for 1-2 h, stained with GelRed, and imaged under UV trans-illumination.
# Data Analysis: Band intensities of supercoiled DNA were quantified with image-analysis software. Relaxation activity (%) was calculated as (Max-Sample)/ (Max-Min)*100%, where Max = intensity of the no-enzyme negative control, Min = intensity of the vehicle-only positive control, and Sample = intensity of the compound-treated lane. Dose-response data (compound concentration, X; relaxation activity %, Y) were fitted in Excel or GraphPad Prism 5.0 using the four-parameter logistic equation: Y=Bottom + (Top-Bottom)/(1+(IC50/X)[…]) to derive the IC50 value for each compound.
# Table 1. Compound-mediated inhibition of topoisomerase I (Topo I) enzymatic activity
# [2] = tested on: HCT116 cells; test: Inhibition of cell proliferation by CTG (CellTiter-Glo) luminescence assay; assay type: cell-based; conditions: Homo sapiens, read-out: HCT116, IC50
# Summary of the method: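 Nine-point 1:3 dilutions applied to HCT116 cells (2 000/well, McCoy's 5a + 10 % FBS) for 72 h at 37 °C, final DMSO 0.25 %. Viability read by CellTiter-Glo luminescence; % inhibition versus DMSO controls fitted to four-parameter logistic for IC50.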
# [3] = 0.75 U Topo I, pNO1 plasmid, 37 °C, 30 min; compounds listed by group (Group A / Group B); read-out: inhibition of topoisomerase I (Topo I) enzymatic activity, IC50
# [4] = HCT-116, 72 h incubation, CellTiter-Glo
# [5] = read-out: inhibition of topoisomerase I (Topo I) enzymatic activity, IC50; 0.75 U Topo I, pNO1 plasmid, 37 °C, 30 min; compounds listed by group (Group A / Group B)
Structure (SMILES),"pIC50 [1, 3]","pIC50 [2, 4]","pIC50 [1, 5]","pIC50 ([2]; HCT-116, 72 h)"
"CC[C@@]1(O)C(=O)OCc2c1cc1n(c2=O)Cc2c-1c(=O)c1cc(F)ccc1n2-c1cnn(C)c1 [Example 57, (S)-4-ethyl-8-fluoro-4-hydroxy-11-(1-methyl-1H-pyrazol-4-yl)-1H-pyrano[3',4':6,7]indolizino[2,1-b]quinoline-3,6,14(4H,11H,12H) -trione]",6.30 to 6.70,> 7.70,,
"CC[C@@]1(O)C(=O)OCc2c1cc1n(c2=O)Cc2c-1c(=O)c1cc(F)ccc1n2-c1cccnc1 [Example 60, (S)-4-ethyl-8-fluoro-4-hydroxy-11-(pyridin-3-yl)-1H-pyrano[3',4':6,7]indolizino[2,1-b]quinoline-3,6,14(4H,11H,12H)-trione]",6.30 to 6.70,> 7.70,,
"CC[C@@]1(O)C(=O)OCc2c1cc1n(c2=O)Cc2c-1c(=O)c1cc(F)ccc1n2-c1cn(C2CC2)nc1C(C)O (stereo partly drawn) [Example 63, (4S)-11-(1-cyclopropyl-3-(1-hydroxyethyl)-1H-pyrazol-4-yl)-4-ethyl-8-fluoro-4-hydroxy-1,12-dihydro-14H-pyrano[3,4:6,7] indolizino[2,1-b]quinoline-3,6,14(4H,11H)-trione]",,,6.30 to 6.70,> 7.70
"CC[C@@]1(O)C(=O)OCc2c1cc1n(c2=O)Cc2c-1c(=O)c1cc3c(cc1n2-c1ccc(N)cc1)OCO3 [Example 67, (S)-5-(4-aminophenyl)-12-ethyl-12-hydroxy-9,12-dihydro-8H-[1,3]dioxolo[4,5-g]pyrano[3,4:6,7]indolizino[2,1-b]quinoline-8,11,14 (SH,6H)-trione]",,,6.30 to 6.70,> 7.70
"CC[C@@]1(O)C(=O)OCc2c1cc1n(c2=O)Cc2c-1c(=O)c1cc(F)c(C)cc1n2-c1ccc(N)cc1 [Example 68, (S)-11-(4-aminophenyl)-4-ethyl-8-fluoro-4-hydroxy-9-methyl-1,12-dihydro-14H-pyrano[3,4:6,7]indolizino[2,1-b]quinoline-3,6,14 (4H,11H)-trione]",,,6.30 to 6.70,> 7.70
"CC[C@@]1(O)C(=O)OCc2c1cc1n(c2=O)Cc2c-1c(=O)c1cc(F)c(N)cc1n2C1CCCC1 [Example 69, (S)-9-amino-4-ethyl-8-fluoro-4-hydroxy-11-cyclopentyl-1,12-dihydro-14H-pyrano[3,4:6,7]indolizino[2,1-b]quinoline-3,6,14(4H,11H)-trione]",> 6.70,> 7.70,,
"CC[C@@]1(O)C(=O)OCc2c1cc1n(c2=O)Cc2c-1c(=O)c1cc(F)c(N)cc1n2C1CCC(C)(C)CC1 [Example 70, (S)-9-amino-4-ethyl-8-fluoro-4-hydroxy-11-(4,4-dimethylcyclohexyl)-1,12-dihydro-14H-pyrano[3,4:6,7]indolizino[2,1-b] quinoline-3,6,14(4H,11H)-trione]",,,6.30 to 6.70,> 7.70
"CC[C@@]1(O)C(=O)OCc2c1cc1n(c2=O)Cc2c-1c(=O)c1cc(F)ccc1n2-c1cccc(N)c1 [Example 71, (S)-11-(3-aminophenyl)-4-ethyl-8-fluoro-4-hydroxy-1H-pyrano[3,4:6,7]indolizino[2,1-b]quinoline-3,6,14(4H,11H,12H)-trione]",,,6.30 to 6.70,> 7.70
"CC[C@@]1(O)C(=O)OCc2c1cc1n(c2=O)Cc2c-1c(=O)c1cc(F)ccc1n2-c1ccc(N)cc1 [Example 72, (S)-11-(4-aminophenyl)-4-ethyl-8-fluoro-4-hydroxy-1H-pyrano[3,4:6,7]indolizino[2,1-b]quinoline-3,6,14(4H,11H,12H)-trione]",,,6.30 to 6.70,> 7.70
"CC[C@@]1(O)C(=O)OCc2c1cc1n(c2=O)Cc2c-1c(=O)c1cc(F)ccc1n2-c1cccc(OC)c1 [Example 73, (S)-4-ethyl-8-fluoro-4-hydroxy-11-(3-methoxyphenyl)-1,12-dihydro-14H-pyrano[3,4:6,7]indolizino[2,1-b]quinoline-3,6,14(4H,11H)-trione]",,,6.30 to 6.70,> 7.70
"CC[C@@]1(O)C(=O)OCc2c1cc1n(c2=O)Cc2c-1c(=O)c1cc(F)cc(CNC3CC3)c1n2C [Example 88, (S)-10-((cyclopropylamino)methyl)-4-ethyl-8-fluoro-4-hydroxy-11-methyl-1,12-dihydro-14H-pyrano[3,4:6,7]indolizino[2,1-b] quinoline-3,6,14(4H,11H)-trione]",,,6.30 to 6.70,> 7.70
"CC[C@@]1(O)C(=O)OCc2c1cc1n(c2=O)Cc2c-1c(=O)c1cc(F)cc(CN(C)C3CC3)c1n2C [Example 89, (S)-10-((cyclopropyl(methyl)amino)methyl)-4-ethyl-8-fluoro-4-hydroxy-11-methyl-1,12-dihydro-14H-pyrano[3,4:6,7]indolizino[2,1-b]quinoline-3,6,14(4H,11H)-trione]",,,6.30 to 6.70,> 7.70
"CC[C@@]1(O)C(=O)OCc2c1cc1n(c2=O)Cc2c-1c(=O)c1cc(F)ccc1n2CCN(C1CC1)C1CC(F)(F)C1 [Example 101, (S)-11-(2-(cyclopropyl(3,3-difluorocyclobutyl)amino)ethyl)-4-ethyl-8-fluoro-4-hydroxy-1,12-dihydro-14H-pyrano[3,4:6,7] indolizino[2,1-b]quinoline-3,6,14(4H,11H)-trione]",,,6.30 to 6.70 and > 6.70,> 7.70
CC[C@@]1(O)C(=O)OCc2c1cc1n(c2=O)Cc2c-1c(=O)c1cc(F)ccc1n2CCNC1CCC1 [Example 106],,,6.30 to 6.70,> 7.70
CC[C@@]1(O)C(=O)OCc2c1cc1n(c2=O)Cc2c-1c(=O)c1cc(F)ccc1n2CCN(C1CCC1)C1CCC1 [Example 119],,,6.30 to 6.70,> 7.70
CC[C@@]1(O)C(=O)OCc2c1cc1n(c2=O)Cc2c-1c(=O)c1cc(F)ccc1n2CCN(C1CCCC1)C1CC1 [Example 137],,,6.30 to 6.70,> 7.70
CC[C@@]1(O)C(=O)OCc2c1cc1n(c2=O)Cc2c-1c(=O)c1cc(F)ccc1n2CCNC1CCCC1(C)C (some centres unmarked) [Example 138],,,6.30 to 6.70,> 7.70
CC[C@@]1(O)C(=O)OCc2c1cc1n(c2=O)Cc2c-1c(=O)c1cc(F)ccc1n2CCN(C)C1CCCC1(C)C (some centres unmarked) [Example 139],,,6.30 to 6.70,> 7.70
CC[C@@]1(O)C(=O)OCc2c1cc1n(c2=O)Cc2c-1c(=O)c1cc(F)ccc1n2CCN(C1CC1)C1CC1 [Example 140],,,> 6.70,> 7.70
CC[C@@]1(O)C(=O)OCc2c1cc1n(c2=O)Cc2c-1c(=O)c1cc(F)ccc1n2CCN(C1CCC1)C1CC1 [Example 141],,,6.30 to 6.70,> 7.70
CC[C@@]1(O)C(=O)OCc2c1cc1n(c2=O)Cc2c-1c(=O)c1cc(F)c(C)cc1n2CCNC1CCC1 [Example 159],,,6.30 to 6.70,> 7.70
CC[C@@]1(O)C(=O)OCc2c1cc1n(c2=O)Cc2c-1c(=O)c1cc(F)c(C)cc1n2CCNC1CC(F)(F)C1 [Example 160],6.30 to 6.70,> 7.70,,
CC[C@@]1(O)C(=O)OCc2c1cc1n(c2=O)Cc2c-1c(=O)c1cc(F)c(C)cc1n2CCNC1CC1 [Example 161],,,6.30 to 6.70,> 7.70
CC[C@@]1(O)C(=O)OCc2c1cc1n(c2=O)Cc2c-1c(=O)c1cc(F)c(C)cc1n2CCNC1CCCC1 [Example 163],,,6.30 to 6.70,> 7.70
CC[C@@]1(O)C(=O)OCc2c1cc1n(c2=O)Cc2c-1c(=O)c1cc(F)c(C)cc1n2CCN(C)C1CC1 [Example 164],,,6.30 to 6.70,> 7.70

# Source: patent EP4778929A1, “NOVEL TYPE I TOPOISOMERASE INHIBITOR, AND PREPARATION METHOD THEREFOR AND USE THEREOF” (priority 2023, dated 2025)
